In the NIST ThermoML archive (doi:10.1016/j.jct.2007.11.011):

Assay: xn = mol fraction of the nth substance listed
Details: Liquid

CCOS(=O)(=O)[O-].CCn1cc[n+](C)c1 [1-ethyl-3-methylimidazolium ethyl sulfate] + CO
mass density [kg/m3]
Details | 100 kPa | 2500 kPa | 5000 kPa | 10000 kPa | 15000 kPa | 20000 kPa | 25000 kPa | 30000 kPa | 35000 kPa
303.15 K, x1 = 0.04781 | – | – | – | – | – | 892.79 | 896.28 | 899.65 | 902.86
303.15 K, x1 = 0.1026 | – | – | – | – | – | 965.4 | 968.54 | 971.57 | 974.42
303.15 K, x1 = 0.1977 | – | – | – | – | – | 1047.97 | 1050.68 | 1053.34 | 1055.86
303.15 K, x1 = 0.2432 | – | – | – | – | – | 1076.28 | 1078.9 | 1081.44 | 1083.87
303.15 K, x1 = 0.3026 | – | – | – | – | – | 1106.82 | 1109.29 | 1111.72 | 1114.04
303.15 K, x1 = 0.3887 | – | – | – | – | 1137.67 | 1140.05 | 1142.39 | 1144.7 | 1146.89
303.15 K, x1 = 0.485 | – | – | – | – | 1165.38 | 1167.67 | 1169.9 | 1172.11 | 1174.2
303.15 K, x1 = 0.589 | – | – | – | – | 1187.91 | 1190.1 | 1192.25 | 1194.38 | 1196.4
303.15 K, x1 = 0.7289 | – | – | – | – | 1210.81 | 1212.92 | 1214.99 | 1217.04 | 1219
303.15 K, x1 = 0.8521 | – | – | – | – | 1225.51 | 1227.56 | 1229.58 | 1231.59 | 1233.49
303.15 K, x1 = 0.9397 | – | – | – | – | 1234.67 | 1236.7 | 1238.71 | 1240.68 | 1242.56
313.15 K, x1 = 0.04781 | 868.71 | 870.87 | 873 | 877.12 | 881.03 | 884.83 | 888.46 | 891.58 | 896.52
313.15 K, x1 = 0.1026 | 943.67 | 945.44 | 947.28 | 950.87 | 954.31 | 957.65 | 960.89 | 964.01 | 967.07
313.15 K, x1 = 0.1977 | 1028.79 | 1030.21 | 1031.77 | 1034.78 | 1037.72 | 1040.6 | 1043.41 | 1046.12 | 1048.8
313.15 K, x1 = 0.2432 | 1057.64 | 1059.08 | 1060.59 | 1063.49 | 1066.28 | 1069.03 | 1071.73 | 1074.34 | 1076.92
313.15 K, x1 = 0.3026 | 1088.94 | 1090.22 | 1091.62 | 1094.33 | 1097 | 1099.6 | 1102.15 | 1104.62 | 1107.08
313.15 K, x1 = 0.3887 | 1122.96 | 1124.22 | 1125.52 | 1128.06 | 1130.57 | 1133.05 | 1135.46 | 1137.8 | 1140.13
313.15 K, x1 = 0.485 | 1151.19 | 1152.35 | 1153.6 | 1156.03 | 1158.42 | 1160.76 | 1163.07 | 1165.3 | 1167.55
313.15 K, x1 = 0.589 | 1174.15 | 1175.21 | 1176.41 | 1178.75 | 1181.04 | 1183.3 | 1185.51 | 1187.68 | 1189.83
313.15 K, x1 = 0.7289 | 1197.48 | 1198.52 | 1199.65 | 1201.89 | 1204.09 | 1206.26 | 1208.39 | 1210.48 | 1212.56
313.15 K, x1 = 0.8521 | 1212.41 | 1213.23 | 1214.31 | 1216.48 | 1218.62 | 1220.72 | 1222.81 | 1224.83 | 1226.88
313.15 K, x1 = 0.9397 | 1221.68 | 1222.7 | 1223.82 | 1225.96 | 1228.06 | 1230.16 | 1232.21 | 1234.23 | 1236.23
323.15 K, x1 = 0.04781 | 859.88 | 862.14 | 864.43 | – | – | – | – | – | –
323.15 K, x1 = 0.1026 | 935.3 | 937.17 | 939.08 | – | – | – | – | – | –
323.15 K, x1 = 0.1977 | 1020.88 | 1022.39 | – | – | – | – | – | – | –
323.15 K, x1 = 0.2432 | 1049.97 | 1051.46 | – | – | – | – | – | – | –
323.15 K, x1 = 0.3026 | 1081.45 | 1082.65 | – | – | – | – | – | – | –
323.15 K, x1 = 0.3887 | 1115.61 | 1116.83 | – | – | – | – | – | – | –
323.15 K, x1 = 0.485 | 1143.95 | 1145.15 | – | – | – | – | – | – | –
323.15 K, x1 = 0.589 | 1167 | 1168.12 | – | – | – | – | – | – | –
323.15 K, x1 = 0.7289 | 1190.46 | 1191.53 | – | – | – | – | – | – | –
323.15 K, x1 = 0.8521 | 1205.38 | 1206.3 | – | – | – | – | – | – | –
323.15 K, x1 = 0.9397 | 1214.87 | 1215.9 | – | – | – | – | – | – | –
